Test results published in patent US20160108414A1, “GROWTH-RELATED ENOX PROTEINS FROM PLANTS WITH YIELD ENHANCEMENT POTENTIAL, SEQUENCES AND METHODS” (Mor-NuCo Enterprises, Inc., priority 2013, published 2016).
Values joined by “and” are separate entries in the source; they are usually repeats but may differ in a detail not shown here. Equal values may be shown once.

Tests used:
recombinant human ENOX2 = target: T1, recombinant human ENOX2 (Homo sapiens, UniProt Q16206); test: Inhibition of recombinant human ENOX2 assayed in parallel; assay type: biochemical; details: read-out: inhibition of recombinant human ENOX2
T1 sequence (Q16206 1-610): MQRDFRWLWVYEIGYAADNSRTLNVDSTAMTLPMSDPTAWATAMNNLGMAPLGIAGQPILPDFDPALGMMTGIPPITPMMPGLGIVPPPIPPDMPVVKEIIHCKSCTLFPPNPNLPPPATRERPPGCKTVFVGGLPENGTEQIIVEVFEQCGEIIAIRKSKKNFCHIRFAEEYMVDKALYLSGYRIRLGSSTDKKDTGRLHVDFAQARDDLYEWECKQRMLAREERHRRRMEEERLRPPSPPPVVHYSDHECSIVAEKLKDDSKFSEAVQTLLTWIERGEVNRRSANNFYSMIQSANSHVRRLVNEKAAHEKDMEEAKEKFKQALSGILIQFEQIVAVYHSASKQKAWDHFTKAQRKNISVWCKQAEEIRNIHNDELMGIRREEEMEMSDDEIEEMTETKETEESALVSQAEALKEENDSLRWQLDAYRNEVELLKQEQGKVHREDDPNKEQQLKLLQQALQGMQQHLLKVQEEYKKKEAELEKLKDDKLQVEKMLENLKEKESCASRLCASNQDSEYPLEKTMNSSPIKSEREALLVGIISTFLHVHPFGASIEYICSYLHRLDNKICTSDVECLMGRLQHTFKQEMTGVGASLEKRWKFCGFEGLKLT
Description: Simalikalactone D is a general ENOX1 inhibitor.

[1] = system: recombinant Arabidopsis ENOX1; test: NADH oxidase activity of IEF-purified recombinant Arabidopsis ENOX1; assay type: biochemical; details: recombinant protein expressed in bacteria, FIG. 14
Experimental: Cells were centrifuged at 5,000 g for 6 min. Pellets were then resuspended in 20 mM Tris-HCl, pH 8.0, containing 0.5 mM PMSF, 1 mM benzamidine and 1 mM 6-aminocaproic and lysed by three passages through a French pressure cell (SLM Aminco) at 20,000 psi. Expression of the recombinant Arabidopsis ENOX1 of about 14 kDa was confirmed by SDS-PAGE with silver staining. Transformed cells were stored at −80° C. in a standard glycerol stock solution. The Arabidopsis ENOX1 proteins were further purified on Criterion IEF gels (Bio-Rad, Hercules, Calif.). The IEF gel was cut into seven equal segments. The pH represented by each slice was based on IEF standards (Bio-Rad). The slices were soaked in 15 mM Tris-Mes buffer, pH 7, at 4° C. for overnight with shaking. The gel-free extracts were assayed for ENOX1 activity.
(§1) Oxidation of NADH was determined spectrophotometrically from the disappearance of NADH measured at 340 nm in a reaction mixture containing 25 mM Tris-MES (pH 7.2), 100 μM GSH, 1 mM KCN to inhibit mitochondrial oxidase activity, 150 μM NADH and the enzyme at 37° C. with temperature control (±0.5° C.) and stirring. Prior to assay, 1 μM reduced glutathione was added to reduce the protein in the presence of substrate. After 10 min, 0.03% hydrogen peroxide was added to reoxidize the protein under renaturing conditions and in the presence of substrate to start the reaction. Activities were measured using paired Hitachi U3210 or paired SLM Aminco 2000 spectrophotometers both with continuous recording. Assays were run for 1 min and were repeated on the same sample at intervals of 1.5 min for the times indicated. An extinction coefficient of 6.22 cm^−1 mM^−1 was used to determine specific activity.
IEF purified ENOX1 was concentrated to 0.7 mg/ml by using a Centricon concentrator (Millipore Corporation, Danvers, Mass.) fitted with a 10,000 nominal molecular weight limit ultracel YM membrane. Samples (50 μl) were combined with 1 μl of trifluoroacetic acid (TFA) in the presence or absence of 15 μl 10 mM bathocuproine. After 2 h of incubation at room temperature, the samples were dialyzed (Spectra/Pro Dialysis membrane, molecular weight cut-off 6-8,000, Spectrum Laboratories (Rancho Dominguez, Calif.) against 20 mM Tris-HCl, pH 8, at 4° C. overnight.

375 NR soybeans = test: TR-III spray, greenhouse soybeans, plant height above cotyledons; assay type: in vivo, soybean; set-up: Plant height above cotyledons: unit not given beside the values; details: for Plant height above cotyledons: single experiments, 10 days after spraying
soybean plants = test: TR-III spray, greenhouse soybeans from untreated seed, epicotyl enlargement; assay type: in vivo
Description: FIG. 20. As in FIG. 19, except plants were from untreated seed and sprayed with different rates of TR-III.

plasma membrane ENOX1 = test: Plasma membrane ENOX1 activity with added cysteine; assay type: biochemical, soybean; details: for ENOX1: +100 μM cysteine
soybean shoots = test: Shoot growth of excised soybean shoots in TR-III solutions; assay type: in vivo; details: narrow range, FIG. 18
Description: FIG. 18. As in FIG. 17, except untreated seeds were germinated and excised shoots were transferred to TR-III solutions of different concentrations prepared in water.

soybeans = test: Soybean field experiment with TR-III foliar spray, standability; assay type: in vivo; details: 0.01 lb/A foliar spray; No TR-III plants severely lodged
Description: FIG. 21. Pods per plant of soybeans in a field experiment comparing no TR-III (solid symbols) with 0.01 lb/A TR-III (open symbols, dashed lines) as a foliar spray applied July 3. FIG. 23. Standability of soybeans from the field experiment of FIG. 21. No TR-III plants (left) were severely lodged.

dNOX (ABP-20) [2] = target: T2, dNOX (ABP-20) (Prunus persica, UniProt O04011, C44A/DUP151-151); test: NADH oxidation of dNOX (ABP-20) site-directed mutants; assay type: biochemical; details: versus wild type
T2 construct: made in house; host or cells: E. coli BL21 (DE3), pET11b (as for the unmodified protein; not repeated for the mutants)
Experimental: as §1
(§2) Amino acids indicated were replaced by alanines by site-directed mutagenesis according to Braman et al. (Braman, J., Papworth, C. and Greener, A. 1996. Methods Mol. Biol. 57:32-44). Numbered amino acids and nucleotide positions of splice variant products refer to numbers assigned to amino acids of the full length transcript

dNOX (ABP-20) [3] = test: as above; assay type: biochemical
Experimental: as §1, §2

dNOX (ABP-20) [4] = target: T2, dNOX (ABP-20); test: DTDP (protein disulfide-thiol) interchange of dNOX (ABP-20) site-directed mutants; assay type: biochemical; details: versus wild type
Experimental: (§3) Protein disulfide-thiol interchange was determined spectrophotometrically from the increase in absorbance at 340 nm resulting from the cleavage of dithiodipyridine (DTDP (Morré, D. J., Gomez-Rey, M. L., Schramke, C., Em, O., Lawler, J., Hobeck, J. and Morré, D. M. 1999. Mol. Cell. Bochem. 200: 7-13). DTDP cleavage was buffered (50 mM Tris-MES, pH 7). The assay was preincubated (1 h at room temperature) with 0.5 μmoles 2,2′-dithiodipyridine (DTDP) in 5 μl of DMSO to react with endogenous reductants present with the plasma membranes. After 10 min, a further […] DTDP were added in 35 μl DMSO to start the reaction. The final reaction volume was […]. The reaction was monitored from the increase in absorbance at 340 nm. Specific activities were calculated using a milimolar absorption coefficient of 6.21.
as §2

dNOX (ABP-20) [5] = test: as above; assay type: biochemical
Experimental: as §3, §2

T2 sequence (O04011 other isoform, or with tags, fused parts or gaps C44A/DUP151-151): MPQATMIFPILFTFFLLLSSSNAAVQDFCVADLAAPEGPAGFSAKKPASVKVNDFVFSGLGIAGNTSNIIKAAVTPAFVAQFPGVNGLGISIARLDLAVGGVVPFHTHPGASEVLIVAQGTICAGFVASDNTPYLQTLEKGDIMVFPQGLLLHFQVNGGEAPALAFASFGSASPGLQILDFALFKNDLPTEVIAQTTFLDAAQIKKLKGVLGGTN

Oc1ccc(C2=Cc3ccc(O)cc3OC2)cc1 [Phenoxodiol]
inhibition at 10 µM (recombinant human ENOX2): > 90%

N[C@@H](CS)C(=O)O [TR-III, cysteine]
Stimulation of NADH oxidation [1]: specific for maximum (3) | Plant height above cotyledons, Ave + MAD (375 NR soybeans; spray 0.001 lb/A, 0 lb/A: 13.6 ± 0.3): 14.7 ± 0.1 | Plant height above cotyledons (375 NR soybeans; spray 0.001 lb/A, 0 lb/A: 13.3, 13.9): 14.8 and 14.6 | Plant height above cotyledons, Ave + MAD (375 NR soybeans; spray 0.01 lb/A): 14.4 ± 0.1 | Plant height above cotyledons (375 NR soybeans; spray 0.01 lb/A): 14.3 and 14.5 | Plant height above cotyledons, Ave + MAD (375 NR soybeans; spray 0.1 lb/A): 15.2 ± 0.7 | Plant height above cotyledons (375 NR soybeans; spray 0.1 lb/A): 14.4 and 15.9 | Epicotyl enlargement (soybean plants; spray 0.001 or 0.1 lb/A): little or no effect | Epicotyl enlargement (soybean plants; spray 0.01 lb/A): Epicotyl enlargement was observed | response of plasma membrane ENOX1 activity to added cysteine (plasma membrane ENOX1; 100 μM, both ST-109-2-4 and Williams 82): about 12% | ENOX1 (plasma membrane ENOX1; plasma membranes of Williams 82 ISU, −cysteine 0.060 ± 0.003): 0.072 ± 0.003 μmoles/min/mg protein | ENOX1 (plasma membrane ENOX1; plasma membranes of transgenic ST-109-2-4, −cysteine 0.110 ± 0.004): 0.123 ± 0.005 μmoles/min/mg protein | concentration range stimulating shoot growth (soybean shoots): around 10^−7 M | Standability (lodging) (soybeans): did not lodge

B1: C44A: ABP-20 with C44 replaced by alanine (CKK motif) (protein, UniProt O04011 24-214, looked up, variant C44A)
Auxin-binding protein ABP20: AVQDFCVADLAAPEGPAGFSAKKPASVKVNDFVFSGLGIAGNTSNIIKAAVTPAFVAQFPGVNGLGISIARLDLAVGGVVPFHTHPGASEVLIVAQGTICAGFVASDNTPYLQTLEKGDIMVFPQGLLHFQVNGGEAPALAFASFGSASPGLQILDFALFKNDLPTEVIAQTTFLDAAQIKKLKGVLGGTN
reduction of NADH oxidation activity (dNOX (ABP-20) [2]): 81% | NADH Oxidation (dNOX (ABP-20) [3]): 0.15 ± 0.05 μmoles/min/mg protein | reduction of protein disulfide-dithiol interchange activity (dNOX (ABP-20) [4]): 81% | DTDP Interchange (dNOX (ABP-20) [5]): 0.02 ± 0.01 μmoles/min/mg protein
